# Experimental data: patent publication US8283356B2, “2,4- Di(hetero)-arylamino-pyrimidine derivatives as ZAP-70 and/or SYK inhibitors” (Novartis AG, priority 2003, dated 2012)
# Target: T1, ZAP-70 (Homo sapiens, UniProt P43403)
# T1 construct: purchased Upstate Biotechnology, Lake Placid, N.Y
# T1 sequence (P43403 1-619): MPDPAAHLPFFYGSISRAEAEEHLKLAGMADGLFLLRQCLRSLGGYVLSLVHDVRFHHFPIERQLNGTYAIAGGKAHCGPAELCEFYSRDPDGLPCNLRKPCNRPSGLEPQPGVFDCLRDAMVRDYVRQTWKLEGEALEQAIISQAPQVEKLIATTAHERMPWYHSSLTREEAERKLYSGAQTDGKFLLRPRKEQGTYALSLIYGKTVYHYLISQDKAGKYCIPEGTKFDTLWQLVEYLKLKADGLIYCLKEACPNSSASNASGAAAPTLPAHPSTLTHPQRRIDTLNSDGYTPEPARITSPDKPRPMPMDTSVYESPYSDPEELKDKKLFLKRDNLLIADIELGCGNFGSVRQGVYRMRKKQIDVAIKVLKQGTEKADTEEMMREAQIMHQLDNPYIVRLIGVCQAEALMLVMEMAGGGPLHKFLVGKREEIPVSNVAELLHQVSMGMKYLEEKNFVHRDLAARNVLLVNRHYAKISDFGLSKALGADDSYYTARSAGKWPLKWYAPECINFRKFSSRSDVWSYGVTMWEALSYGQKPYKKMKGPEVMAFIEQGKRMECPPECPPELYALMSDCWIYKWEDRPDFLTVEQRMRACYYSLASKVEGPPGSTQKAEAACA
# Experiment: ZAP-70 kinase assay (time-resolved fluorescence resonance energy transfer)
# Assay type: biochemical
# Conditions: 80 nM ZAP-70, 4 μM ATP, LAT-11 peptide substrate
# Experimental: 1. ZAP-70 Cell-Free Kinase Assays
# ZAP-70 and Lck (lymphoid T-cell protein tyrosine kinase) are commercially available from Upstate Biotechnology, Lake Placid, N.Y.
# ZAP-70 Kinase assay: The activities of the compounds of invention are determined in a homogenous ZAP-70 kinase assay based on time-resolved fluorescence resonance energy transfer. Briefly, 80 nM ZAP-70 are incubated with 80 nM Lck and 4 μM ATP in ZAP-70 kinase buffer (20 mM Tris, pH 7.5, 10 μM Na3VO4, 1 mM DTT, 1 mM MnCl2, 0.01% bovine serum albumin, 0.05% Tween 20) for 1 hour at room temperature in a siliconized polypropylene tube. Then, the selective Lck inhibitor PP2 (4-amino-5-(4-chloro-phenyl)-7-(t-butyl)pyrazolo[3,4-d]pyrimidine; Alexis Biochemicals) is added (final concentration 1.2 μM) and incubated for further 10 min. Ten μl of this solution is mixed with the 10 μl biotinylated peptide LAT-11 (linker for activation of T cell prepared as disclosed in Example 1A of WO 02/12275, the contents of which, particularly with reference to Example 1A, is incorporated herein by reference; 1 μM) as substrate and 20 μl of serial dilutions of inhibitors and incubated for 4 hours at room temperature. The kinase reaction is terminated with 10 μl of a 10 mM EDTA solution in detection buffer (20 mM Tris, pH 7.5, 0.01% bovine serum albumin, 0.05% Tween 20). The detection phase is performed by addition of 50 μl europium (Eu)-labelled anti-phosphotyrosine antibody (e.g. Eu-PT66; final concentration 0.125 nM; Advant/Wallac) and 50 μl streptavidin-allophycocyanine (SA-APC; final concentration 40 nM) in detection buffer. After 1 hour incubation at room temperature fluorescence is measured, e.g., on the Victor2 Multilabel Counter (VVallac) at 665 nm. Background values (low control) are obtained in the absence of test samples and ATP and are subtracted from all values. Signals obtained in the absence of test samples are taken as 100% (high control). The inhibition obtained in the presence of test compounds is calculated as percent inhibition of the high control. The concentration of test compounds resulting in 50% inhibition (IC50) is determined from the dose-response curves.
row,IC50 [nM],Compound
1,21,"NS(=O)(=O)c1c(Nc2ccnc(Nc3ccc4c(c3)NCC4)n2)ccc2c1OCCO2 [Example 144, 6-[2-(2,3-Dihydro-1H-indol-6-ylamino)-pyrimidin-4-ylamino]-2,3-dihydro-benzo[1,4]dioxine-5-sulfonic acid amide]"
2,183,"COc1cccc(Nc2ccnc(Nc3ccc4c(c3)NCC4)n2)c1S(N)(=O)=O [Example 141, 2-[2-(2,3-Dihydro-1H-indol-6-ylamino)-pyrimidin-4-ylamino]-6-methoxy-benzenesulfonamide]"
3,10,"CNc1cc(Nc2nccc(Nc3ccc4c(c3S(N)(=O)=O)OCCO4)n2)ccc1C [Example 140, 6-[2-(4-Methyl-3-methylamino-phenylamino)-pyrimidin-4-ylamino]-2,3-dihydro-benzo[1,4]dioxine-5-sulfonic acid amide]"

# More lines, now with the values behind:
row,Compound,IC50 [nM]
1,"CNc1cc(Nc2nccc(Nc3cccc(OC)c3S(N)(=O)=O)n2)ccc1C [Example 139, 2-Methoxy-6-[2-(4-methyl-3-methyl-amino-phenylamino)-pyrimidin-4-ylamino]-benzenesulfonamide]",37
2,CN1CCN(CCOc2cccc(Nc3nccc(Nc4ccc5c(c4S(N)(=O)=O)OCCO5)n3)c2)CC1 [Example 11],16
3,COCCNc1cc(Nc2nccc(Nc3ccc4c(c3S(N)(=O)=O)OCCO4)n2)ccc1C [Example 57],13
